Results published in the supplement of paper PMC10307832.

Tests used:
Experiment in all cases: relative viability (nuclei count vs DMSO), 5 days (fraction); higher = more cells survive
[1] = tested on: Calu-6
In short: (§1)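 Lung cancer cell lines, seeded in 1536-well plates, were treated the following day by pin tool with a single drug or with five library-drug doses (not always all listed) in √10 steps on top of a fixed anchor-drug dose. Cells were fixed and nuclei stained in one step after 5 days, and nuclei were counted. Relative viability is the nuclei count for treated wells divided by that for vehicle wells, reported as medians of duplicate plates.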

[2] = tested on: NCI-H1299
In short: as §1

[3] = tested on: EBC-1
In short: as §1

[4] = tested on: NCI-H1355
In short: as §1

[5] = tested on: IA-LM
In short: as §1

[6] = tested on: NCI-H23
In short: as §1

[7] = tested on: NCI-H1993
In short: as §1

[8] = tested on: NCI-H1703
In short: as §1

[9] = tested on: NCI-H322M
In short: as §1

[10] = tested on: UMC-11
In short: as §1

[11] = tested on: LCLC-97TM1
In short: as §1

[12] = tested on: NCI-H596
In short: as §1

[13] = tested on: A549
In short: as §1

Structure (SMILES): CCN(CC)CCCCNc1ncc2cc(-c3cc(OC)cc(OC)c3)c(NC(=O)NC(C)(C)C)nc2n1 + C[C@]1(O)C[C@@H](c2nc(-c3ccc4ccc(-c5ccccc5)nc4c3)c3c(N)nccn32)C1 [Linsitinib] (partner 1 µM)
- relative viability ([1]; first compound 0.03162 µM): 0.946
- relative viability ([1]; first compound 0.1 µM): 0.969
- relative viability ([1]; first compound 0.3162 µM): 0.898
- relative viability ([1]; first compound 1 µM): 1.02
- relative viability ([2]; first compound 0.01 µM): 1.01
- relative viability ([2]; first compound 0.03162 µM): 1.01
- relative viability ([2]; first compound 0.1 µM): 0.986
- relative viability ([2]; first compound 0.3162 µM): 1.09
- relative viability ([2]; first compound 1 µM): 0.944
- relative viability ([3]; first compound 0.01 µM): 0.885
- relative viability ([3]; first compound 0.03162 µM): 1.04
- relative viability ([3]; first compound 0.1 µM): 0.994
- relative viability ([3]; first compound 0.3162 µM): 1.06
- relative viability ([3]; first compound 1 µM): 0.879
- relative viability ([4]; first compound 0.01 µM): 0.861
- relative viability ([4]; first compound 0.03162 µM): 0.887
- relative viability ([4]; first compound 0.1 µM): 0.873
- relative viability ([4]; first compound 0.3162 µM): 0.898
- relative viability ([4]; first compound 1 µM): 0.794
- relative viability ([5]; first compound 0.01 µM): 0.757
- relative viability ([5]; first compound 0.03162 µM): 0.748
- relative viability ([5]; first compound 0.1 µM): 0.621
- relative viability ([5]; first compound 0.3162 µM): 0.78
- relative viability ([5]; first compound 1 µM): 0.506
- relative viability ([6]; first compound 0.01 µM): 0.669
- relative viability ([6]; first compound 0.03162 µM): 0.63
- relative viability ([6]; first compound 0.1 µM): 0.644
- relative viability ([6]; first compound 0.3162 µM): 0.601
- relative viability ([6]; first compound 1 µM): 0.516
- relative viability ([7]; first compound 0.01 µM): 0.763
- relative viability ([7]; first compound 0.03162 µM): 0.807
- relative viability ([7]; first compound 0.1 µM): 0.831
- relative viability ([7]; first compound 0.3162 µM): 0.751
- relative viability ([7]; first compound 1 µM): 0.731
- relative viability ([8]; first compound 0.01 µM): 1.02
- relative viability ([8]; first compound 0.03162 µM): 0.63
- relative viability ([8]; first compound 0.1 µM): 0.792
- relative viability ([8]; first compound 0.3162 µM): 0.959
- relative viability ([8]; first compound 1 µM): 0.967
- relative viability ([9]; first compound 0.01 µM): 0.99
- relative viability ([9]; first compound 0.03162 µM): 0.875
- relative viability ([9]; first compound 0.1 µM): 0.938
- relative viability ([9]; first compound 0.3162 µM): 0.982
- relative viability ([9]; first compound 1 µM): 0.891
- relative viability ([10]; first compound 0.01 µM): 1.25
- relative viability ([10]; first compound 0.03162 µM): 1.02
- relative viability ([10]; first compound 0.1 µM): 1.29
- relative viability ([10]; first compound 0.3162 µM): 1.21
- relative viability ([10]; first compound 1 µM): 0.99
- relative viability ([11]; first compound 0.03162 µM): 0.176
- relative viability ([11]; first compound 0.1 µM): 0.23
- relative viability ([11]; first compound 0.3162 µM): 0.199
- relative viability ([11]; first compound 1 µM): 0.216
- relative viability ([12]; first compound 0.01 µM): 1.1
- relative viability ([12]; first compound 0.03162 µM): 1.05
- relative viability ([12]; first compound 0.1 µM): 1.05
- relative viability ([12]; first compound 0.3162 µM): 1.07
- relative viability ([12]; first compound 1 µM): 0.814
- relative viability ([13]; first compound 0.01 µM): 0.623
- relative viability ([13]; first compound 0.03162 µM): 0.626
- relative viability ([13]; first compound 0.1 µM): 0.563
- relative viability ([13]; first compound 0.3162 µM): 0.636
- relative viability ([13]; first compound 1 µM): 0.595

Structure (SMILES): CCN(CC)CCCCNc1ncc2cc(-c3cc(OC)cc(OC)c3)c(NC(=O)NC(C)(C)C)nc2n1 + CS(=O)(=O)N1CCN(Cc2cc3nc(-c4cccc5[nH]ncc45)nc(N4CCOCC4)c3s2)CC1 [Pictilisib] (partner 1 µM)
- relative viability ([1]; first compound 0.01 µM): 1.01
- relative viability ([1]; first compound 0.03162 µM): 0.994
- relative viability ([1]; first compound 0.1 µM): 1.12
- relative viability ([1]; first compound 0.3162 µM): 1.09
- relative viability ([1]; first compound 1 µM): 0.87
- relative viability ([2]; first compound 0.01 µM): 0.883
- relative viability ([2]; first compound 0.03162 µM): 0.845
- relative viability ([2]; first compound 0.1 µM): 0.851
- relative viability ([2]; first compound 0.3162 µM): 0.96
- relative viability ([2]; first compound 1 µM): 0.775
- relative viability ([3]; first compound 0.01 µM): 0.369
- relative viability ([3]; first compound 0.03162 µM): 0.32
- relative viability ([3]; first compound 0.1 µM): 0.342
- relative viability ([3]; first compound 0.3162 µM): 0.37
- relative viability ([3]; first compound 1 µM): 0.293
- relative viability ([4]; first compound 0.01 µM): 0.327
- relative viability ([4]; first compound 0.03162 µM): 0.375
- relative viability ([4]; first compound 0.1 µM): 0.478
- relative viability ([4]; first compound 0.3162 µM): 0.569
- relative viability ([4]; first compound 1 µM): 0.461
- relative viability ([5]; first compound 0.01 µM): 0.329
- relative viability ([5]; first compound 0.03162 µM): 0.329
- relative viability ([5]; first compound 0.1 µM): 0.342
- relative viability ([5]; first compound 0.3162 µM): 0.333
- relative viability ([5]; first compound 1 µM): 0.265
- relative viability ([6]; first compound 0.01 µM): 0.414
- relative viability ([6]; first compound 0.03162 µM): 0.411
- relative viability ([6]; first compound 0.1 µM): 0.463
- relative viability ([6]; first compound 0.3162 µM): 0.37
- relative viability ([6]; first compound 1 µM): 0.435
- relative viability ([7]; first compound 0.01 µM): 0.759
- relative viability ([7]; first compound 0.03162 µM): 0.947
- relative viability ([7]; first compound 0.1 µM): 0.861
- relative viability ([7]; first compound 0.3162 µM): 0.86
- relative viability ([7]; first compound 1 µM): 0.91
- relative viability ([8]; first compound 0.01 µM): 0.233
- relative viability ([8]; first compound 0.03162 µM): 0.222
- relative viability ([8]; first compound 0.1 µM): 0.244
- relative viability ([8]; first compound 0.3162 µM): 0.213
- relative viability ([8]; first compound 1 µM): 0.252
- relative viability ([9]; first compound 0.01 µM): 0.573
- relative viability ([9]; first compound 0.03162 µM): 0.47
- relative viability ([9]; first compound 0.1 µM): 0.499
- relative viability ([9]; first compound 0.3162 µM): 0.566
- relative viability ([9]; first compound 1 µM): 0.456
- relative viability ([10]; first compound 0.01 µM): 0.85
- relative viability ([10]; first compound 0.03162 µM): 0.806
- relative viability ([10]; first compound 0.1 µM): 0.987
- relative viability ([10]; first compound 0.3162 µM): 0.989
- relative viability ([10]; first compound 1 µM): 0.752
- relative viability ([11]; first compound 0.03162 µM): 0.18
- relative viability ([11]; first compound 0.1 µM): 0.162
- relative viability ([11]; first compound 0.3162 µM): 0.16
- relative viability ([11]; first compound 1 µM): 0.178
- relative viability ([12]; first compound 0.01 µM): 0.422
- relative viability ([12]; first compound 0.03162 µM): 0.418
- relative viability ([12]; first compound 0.1 µM): 0.369
- relative viability ([12]; first compound 0.3162 µM): 0.378
- relative viability ([12]; first compound 1 µM): 0.35
- relative viability ([13]; first compound 0.01 µM): 0.52
- relative viability ([13]; first compound 0.03162 µM): 0.543
- relative viability ([13]; first compound 0.1 µM): 0.562
- relative viability ([13]; first compound 0.3162 µM): 0.621
- relative viability ([13]; first compound 1 µM): 0.41
